Assay [1] deals with recombinant B. subtilis PBP4 (Bacillus subtilis, UniProt P40750). The assay is described as follows: BOCILLIN FL fluorescence polarization binding competition. The method, then: PBP4 BOCILLIN™ FL Binding Competition Assays. The ability of putative PBP4 inhibitors to impact the active site of recombinant PBP4 was assessed using two previously established BOCILLIN™-FL Penicillin (Penicillin V conjugated to BODIPY fluorescent dye) binding assays. First, fluorescence polarization assays were performed as previously described. Briefly, the indicated amount of the putative PBP4 inhibitor or control antibiotic was incubated with 1 μM recombinant B. subtilis PBP4 or S. aureus PBP2a in potassium phosphate buffer (40 mM K2HPO4 and 10 mM KH2PO4) for 1 hour in black 96-well microtiter plates (Corning Life Sciences®, Corning, NY). Following incubation, 1 μM (final concentration) BOCILLIN™ FL penicillin was added, and the mixture was incubated for 30 minutes. BOCILLIN™ FL fluorescence polarization was measured at (495nm excitation and 545nm emission) in a SpectraMax® M5 multimode plate reader (Molecular Devices®, San Jose, CA). All assays were repeated at least 8 times, averaged, and values falling outside of 2 standard deviations were considered outliers. Resulting data was plotted as percentage BOCILLIN™ FL binding inhibition=(T/U)×100; T=FL polarization of ((PBP4+BOCILLIN™ FL)−(PBP4+BOCILLIN™ FL+inhibitor compound)), U=FL polarization of ((PBP4+BOCILLIN™ FL)−(BOCILLIN™ FL)). Second, gel electrophoresis and fluorescence detection were used to measure BOCILLIN™ FL labeling of PBP4 treated with the known PBP4 inhibitor cefoxitin (positive control), kanamycin (negative control) or 9314848 (test compound). Briefly, 1 μM of recombinant PBP4 was mixed with 0, 50, 500, 2000, or 5000 μM 9314848 or control antibiotic in 50 mM phosphate buffer (pH 7.4) and incubated at 37° C. for 30 minutes. Next 40 μM of BOCILLIN™ FL was added to the reaction mixture and incubated for an additional 30 minutes at 37° C. Reactions were stopped by adding 5×SDS-PAGE gel loading dye, heated at 100° C. for 3 minutes and separated by electrophoresis in 12% SDS-PAGE (2 h, 120 Volts). BOCILLIN™ FL labeled PBP4 was imaged at λ=365 nm using a BioRad© Gel Doc EZ™ Imaging system and the gel was then subsequently stained with Bio-safe Coomassie Brilliant Blue stain (BioRad©, Hercules, CA, USA) to measure the amount of protein present in each reaction condition and analyzed using NIH-ImageJ software. The percent BOCILLIN™ FL binding was calculated by first normalizing the protein present in each reaction condition to that of untreated control and subsequently applying each reaction's protein normalization factor to each reaction's fluorescent signal. The percentage BOCILLIN™ FL binding inhibition was then calculated as the normalized band intensity of antibiotic/compound treated sample as compared to control sample (PBP4+BOCILLIN™ FL in the absence of compound).
To more directly evaluate whether 9314848 is likely to affect PBP4 function, the compound's ability to bind recombinant PBP4 was measured using BOCILLIN™ FL fluorescence polarization displacement assays. The premise for the assay is that the fluorescence polarization of the fluorescently labeled β-lactam, penicillin V (BOCILLIN™ FL), will increase upon binding to its cognate target (i.e., PBP4). Further, compounds that bind PBP4 and inhibit its function would impede BOCILLIN™ FL binding thereby allowing assessment of the protein binding affinity of 9314848 using a simple fluorescence reduction assay.
On the technique in general: In fluorescence polarisation assays a small probe gives low polarisation when free and higher when bound to something large.

In assay [2] the test system is recombinant PBP4. The assay is described as follows: BOCILLIN FL labeling of PBP4, gel electrophoresis and fluorescence detection. It is filed as binding. The following applies: kanamycin 2000 μM or 5000 μM. The method, then:
PBP4 BOCILLIN™ FL Binding Competition Assays. The ability of putative PBP4 inhibitors to impact the active site of recombinant PBP4 was assessed using two previously established BOCILLIN™-FL Penicillin (Penicillin V conjugated to BODIPY fluorescent dye) binding assays. First, fluorescence polarization assays were performed as previously described. Briefly, the indicated amount of the putative PBP4 inhibitor or control antibiotic was incubated with 1 μM recombinant B. subtilis PBP4 or S. aureus PBP2a in potassium phosphate buffer (40 mM K2HPO4 and 10 mM KH2PO4) for 1 hour in black 96-well microtiter plates (Corning Life Sciences®, Corning, NY). […] BOCILLIN™ FL fluorescence polarization was measured at (495nm excitation and 545nm emission) in a SpectraMax® M5 multimode plate reader (Molecular Devices®, San Jose, CA). […] Second, gel electrophoresis and fluorescence detection were used to measure BOCILLIN™ FL labeling of PBP4 treated with the known PBP4 inhibitor cefoxitin (positive control), kanamycin (negative control) or 9314848 (test compound). […] BOCILLIN™ FL labeled PBP4 was imaged at λ=365 nm using a BioRad© Gel Doc EZ™ Imaging system and the gel was then subsequently stained with Bio-safe Coomassie Brilliant Blue stain (BioRad©, Hercules, CA, USA) to measure the amount of protein present in each reaction condition and analyzed using NIH-ImageJ software. […]

Assay [3] concerns MRSA strain ATCC BAA-1556. The assay is described as follows: Broth microdilution antibiotic potentiation. It is filed as cell-based, Staphylococcus aureus. The note with it: for MIC: Staphylococcus aureus. The method, then:
(§1) Broth Microdilution Method for Antibiotic Potentiation with MRSA Strains. Bacteria were cultured for 6 hours in CAMHB and sub-cultured to 5×10^5 CFU/mL in CAMHB. Subcultures were aliquoted (4 mL) into culture tubes and then inoculated with compound from 10 mM or 100 mM stock in DMSO to the desired concentration. […]. Bacteria treated with antibiotic alone served as the control. Samples from the secondary culture tubes were then aliquoted (200 μL) into the first row of wells of a 96-well microtiter plate. Rows 2-11 were filled (100 μL) with the remaining 4 mL of bacterial subculture containing the adjuvant. Row 12 was filled (100 μL) with uninoculated media. From row 1, 100 μL was transferred to row two and mixed 5-8 times before being transferred to row 3. This procedure was used to serial dilute the rest of the rows through 10. The microtiter plate was then covered in Press 'n Seal and incubated at 37° C.
On the technique in general: In broth dilution the organism is exposed to a series of concentrations in liquid medium.

The subject of assay [4] is MRSA strain AH-2204. The assay is described as follows: Broth microdilution antibiotic potentiation. The format is cell-based, Staphylococcus aureus. The following applies: Staphylococcus aureus, MRSA. The method, then: as §1
Assay [5] relates to MRSA strain AH-1263. Description: Broth microdilution antibiotic potentiation. It is filed as cell-based, Staphylococcus aureus. The note with it: for MIC: Staphylococcus aureus, MRSA. How it is done: as §1
In assay [6] the test system is MRSA strain BAA-44. Description: Broth microdilution antibiotic potentiation. It is filed as cell-based. The following applies: Staphylococcus aureus, read-out: Oxacillin MIC, no compound (—). The method, then: as §1
Assay [7] relates to MRSA strain BAA-811. The assay is described as follows: Broth microdilution antibiotic potentiation. The format is cell-based. The note with it: Staphylococcus aureus, read-out: Oxacillin MIC, no compound (—). The method, then:
as §1

The test system of assay [8] is MRSA strain BAA-1685. The assay is described as follows: Broth microdilution antibiotic potentiation. The format is cell-based. The following applies: Staphylococcus aureus, read-out: Oxacillin MIC, no compound (—). How it is done:
as §1

For assay [9], the system named is MRSA strain 700699. The assay is described as follows: Broth microdilution antibiotic potentiation. The format is cell-based. The note with it: Staphylococcus aureus, read-out: Oxacillin MIC, no compound (—). How it is done: as §1
In assay [10] the test system is MRSA strain BAA-1770. Description: Broth microdilution antibiotic potentiation. The format is cell-based, Staphylococcus aureus. The following applies: Staphylococcus aureus, read-out: Oxacillin MIC, no compound (—). How it is done:
(§2) Broth Microdilution Method for Antibiotic Potentiation with MRSA Strains. Bacteria were cultured for 6 hours in CAMHB and sub-cultured to 5×10^5 CFU/mL in CAMHB. Subcultures were aliquoted (4 mL) into culture tubes and then inoculated with compound from 10 mM or 100 mM stock in DMSO to the desired concentration. […] Bacteria treated with antibiotic alone served as the control. Samples from the secondary culture tubes were then aliquoted (200 μL) into the first row of wells of a 96-well microtiter plate. Rows 2-11 were filled (100 μL) with the remaining 4 mL of bacterial subculture containing the adjuvant. Row 12 was filled (100 μL) with uninoculated media. From row 1, 100 μL was transferred to row two and mixed 5-8 times before being transferred to row 3. This procedure was used to serial dilute the rest of the rows through 10. The microtiter plate was then covered in Press 'n Seal and incubated at 37° C.

For assay [11], the system named is MRSA strain 700789. The assay is described as follows: Broth microdilution antibiotic potentiation. It is filed as cell-based. The following applies: Staphylococcus aureus, read-out: Oxacillin MIC, no compound (—). The method, then: as §2
The test system of assay [12] is MRSA strain 43300. Description: Broth microdilution antibiotic potentiation. It is filed as cell-based. The following applies: Staphylococcus aureus, read-out: Oxacillin MIC, no compound (—). How it is done:
as §2

These results are taken from US20260124213A1, “STAPHYLOCOCCUS AUREUS PBP4 INHIBITORS AND METHOD OF USE” (UNIVERSITY OF ROCHESTER, priority 2022, published 2026).

Values joined by “and” are separate entries in the source; they are usually repeats but may differ in a detail not shown here. Identical values can stand only once. Like-named read-outs stand apart in the source and are kept apart here.

recombinant B. subtilis PBP4, sequence (P40750 22-624): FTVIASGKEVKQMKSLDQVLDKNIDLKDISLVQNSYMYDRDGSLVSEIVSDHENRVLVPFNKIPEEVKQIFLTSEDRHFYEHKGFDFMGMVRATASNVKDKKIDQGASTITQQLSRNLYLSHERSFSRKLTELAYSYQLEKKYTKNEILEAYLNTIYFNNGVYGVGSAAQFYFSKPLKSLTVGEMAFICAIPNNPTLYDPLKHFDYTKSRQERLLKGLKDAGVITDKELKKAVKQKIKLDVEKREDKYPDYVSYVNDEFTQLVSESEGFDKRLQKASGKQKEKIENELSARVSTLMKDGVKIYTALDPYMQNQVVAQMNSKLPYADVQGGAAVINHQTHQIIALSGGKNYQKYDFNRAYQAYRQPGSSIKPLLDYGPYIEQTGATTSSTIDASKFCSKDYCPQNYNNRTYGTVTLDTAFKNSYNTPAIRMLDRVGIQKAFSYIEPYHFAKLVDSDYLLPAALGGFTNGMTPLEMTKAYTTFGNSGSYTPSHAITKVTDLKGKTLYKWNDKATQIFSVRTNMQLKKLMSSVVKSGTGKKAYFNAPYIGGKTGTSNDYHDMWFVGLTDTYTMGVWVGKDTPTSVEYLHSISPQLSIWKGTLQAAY

`CC1(C)S[C@@H]2[C@H](NC(=O)[C@H](N)c3ccccc3)C(=O)N2[C@H]1C(=O)O` [Ampicillin, ampicillin]: the “Effect of preincubation on BOCILLIN FL binding to PBP4 (fluorescence polarization)” value in assay [1] is given as “limited BOCILLIN™ FL binding”. Also, the “Concentration of maximum BOCILLIN FL binding inhibition” value in assay [1] (dose-response 0-50 μM) lay within 25 to 50 µM. In [2], the “Effect of preincubation on BOCILLIN FL labeling of PBP4 (gel)” value is reported as “reduced the protein's ability to bind the fluorescent substrate in a dose-dependent manner”. The minimum inhibitory concentration (MIC) (commonly the least concentration at which growth counts as inhibited) was determined as 16 µg/mL in assay [3] (ATCC BAA-1556, read-out: Ampicillin MIC, no compound (—)); 2 µg/mL in assay [4] (AH-2204, read-out: Ampicillin MIC, no compound (—)); 16 µg/mL in assay [5] (AH-1263, read-out: Ampicillin MIC, no compound (—)).

With `Cc1onc(-c2ccccc2)c1C(=O)N[C@@H]1C(=O)N2[C@@H]1SC(C)(C)[C@@H]2C(=O)O` [Oxacillin, oxacillin], the MIC in assay [6] is 16 µg/mL; in [7], 256 µg/mL; in assay [8], 64 µg/mL; in assay [9], 16 µg/mL; in assay [10] it was 512 µg/mL; in [11] it was 256 µg/mL. The MIC was determined as 512 µg/mL in [12]; 32 µg/mL in assay [3] (read-out: Oxacillin MIC, no compound (—), ATCC BAA-1556); 32 µg/mL in assay [4] (read-out: Oxacillin MIC, no compound (—), AH-2204); 16 µg/mL in assay [5] (read-out: Oxacillin MIC, no compound (—), AH-1263). In addition, the “Oxacillin MIC, no compound (—)” value is 32 µg/mL and 16 µg/mL in [3] (ATCC BAA-1556); 32 µg/mL in assay [5] (AH-1263).
